# From patent US20210401776A1, “METHOD OF TREATING […] SYNDROMES USING FENFLURAMINE ENANTIOMERS” (ZOGENIX INTERNATIONAL LIMITED, priority 2018, published 2021)
# “Also recorded” adds a separate entry of the source.
# How the values were obtained:
# [1] = in vivo; cited from earlier work
# [2] = system: dizocilpine-treated mice; assay: dizocilpine-induced learning deficits, statements covering both tests (Y-maze and passive avoidance); assay type: in vivo, Male Swiss OF-1 mice; conditions: mouse, in vivo
# Description: Experiments were conducted to determine the dose-response effects of fenfluramine (FEN) and norfenfluramine (NOR), racemate and (+)- and (−)-isomers, in an in vivo mouse model; the dizocilpine-induced amnesia model (described below) is used to test responses to drugs acting at the sigma-1 receptor (S1R) (Maurice et al., 1994a,b; Maurice, et al., 1998, Neuroscience 83:413-428).
# The drugs were administered intraperitoneally (“ip” or “IP”) with dizocilpine (0.15 mg/kg) and tested in the spontaneous alternation test on day 1 and in the passive avoidance test on days 2-3.
# The apparatus consisted of a 2-compartment box, with one illuminated with white polyvinylchloride (PVC) walls and a transparent cover (15×20×15 cm high), one with black polyvinylchloride walls and cover (15×20×15 cm high), and a grid floor. A guillotine door separated each compartment. A 60 W lamp was positioned 40 cm above the apparatus lit the white compartment during the experimental period. Scrambled foot shocks (0.3 mA for 3 s) were delivered to the grid floor using a shock generator scrambler (Lafayette Instruments, Lafayette, Mass., USA). The guillotine door was initially closed during the training session. Each mouse was placed into the white compartment. After 5 s, the door was raised. When the mouse entered the darkened compartment and placed all its paws on the grid floor, the door was gently closed and the 3-scrambled foot shock was delivered for 3 s. The step-through latency, i.e., the latency spent to enter the dark compartment, and the level of sensitivity to the shock were recorded. The latter was evaluated as: 0=no sign; 1=flinching reactions; 2=flinching and vocalization reactions. The retention test was carried out 24 h after training. Each mouse was placed again into the white compartment. After 5 s, the door was raised. The step-through latency was recorded up to 300 s. Animals entered the darkened compartment or were gently pushed into it and the escape latency, i.e., the time spent to return into the white compartment, was also measured up to 300 s. Results were expressed as median and interquartile (25%-75%) range.
# The Y-maze is made of grey PVC. Each arm is 40 cm long, 13 cm high, 3 cm wide at the bottom, 10 cm wide at the top, and converged at an equal angle. Each mouse was placed at the end of one arm and allowed to move freely through the maze during an 8-min session. The series of arm entries, including possible returns into the same arm, were checked visually. An alternation was defined as entries into all three arms on consecutive occasions. The number of maximum alternations was therefore the total number of arm entries minus two and the percentage of alternation was calculated as: actual alternations/maximum alternations)×100. Parameters included the percentage of alternation (memory index) and total number of arm entries (exploration index).
# [3] = system: homozygous scn1Lab−/− mutants; assay: zebrafish locomotor assay (total distance in large movements, lardist); assay type: in vivo, zebrafish (Danio rerio)
# From the text: (Baraban et al, 2013). Additional phenotypes of these mutants include: abnormal optokinetic response (OKR; 5 dpf); darkened pigmentation; death by 14 dpf; spontaneous seizure-like activity; abnormal (forebrain electrographic activity (3-7 dpf); seizure activity; lower levels of serotonin in scn1lab^−/− head homogenates at 7 dpf; zebrafish express orthologs of human serotonin (5HT) receptor subtypes at 5 dpf; nighttime hyperactivity (5 dpf); in open field-increased thigmotaxis. decreased movement (at 5 dpf); no differences in GABAergic neurons compared to wild type (5 dpf); 5-HT2a (hitr2aa/b) and S-HT2c; (htr2c11) orthologs expressed in larval heads in wild-type and scn1lab−/− mutants and in adult wild-type brains.
# To assay the locomotor activity of homozygous scn1Lab−/− mutants and control WT scn1Lab+/+, zebrafish larvae were placed one larva per well in a 96-well plate in 100 μL of embryo medium from 4 to 8 days post-fertilization (dpf). Each day the larvae are tracked in an automated tracking device (ZebraBox™ apparatus; Viewpoint, Lyon, France) for 10 min after 30 min habituation (100-second integration interval). All recordings were performed at the same time during daytime period. The total distance in large movements was recorded and quantified using ZebraLab™ software (Viewpoint, Lyon, France). Data was pooled together from at least three independent experiments with at least 24 larvae per condition.
# Scn1Lab^−/− mutants and WT scn1Lab+/+ larvae are arrayed in the same plate and treated at 6 days post fertilization (dpf) with the test compounds (25 μM), or VHC in individual wells of a 96-well plate. After incubation at 28° C. on a 14/10 hour light/dark cycle and 30-min chamber habituation 6 and 7 dpf larvae are tracked for locomotor activity for 10 min (100-second integration interval) under dark conditions. An incubation time of 1.5 hours is further referred to as short treatment (6 dpf). Furthermore, these larvae are analyzed after more than 22 hours incubation (7 dpf), i.e. long treatment. The total locomotor activity is quantified using the parameter lardist and plotted in cm. Data for each compound is pooled together from multiple independent experiments with at least 9 larvae per treatment condition.
# [4] = system: dizocilpine-treated mice; assay: spontaneous alternation in the Y-maze, dizocilpine-induced amnesia model; assay type: in vivo, Male Swiss OF-1 mice
# [5] = system: WT scn1Lab+/+ zebrafish larvae; assay: maximal tolerated concentration (MTC); assay type: in vivo, zebrafish (Danio rerio); conditions: no signs of toxicity in 12 out of 12 larvae within 48 hours of exposure
# Description: To evaluate the maximal tolerated concentration (MTC) of each compound, 6 dpf-old WT scn1Lab+^+/+ zebrafish larvae were incubated in a 96-well plate (tissue culture plate, flat bottom, FALCON®, USA) with different concentrations of compound or VHC at 28° C. on a 14/10 hour light/dark cycle under standard aquaculture conditions (medium is replenished daily). Each larva was individually checked under the microscope during a period of 48 hours for the following signs of toxicity: decreased or no touch response upon a light touch of the tail, loss of posture, body deformation, edema, changes in heart rate or circulation and death. […] MTC was determined as 100 micromolar (μM) for (+)-fenfluramine and both norfenfluramine enantiomers. A MTC of 50 μM was determined for (−)-fenfluramine.
# [6] = system: homozygous scn1Lab−/− mutants; assay: epileptiform activity, open-field recordings in larval forebrain (LFP assay); assay type: in vivo, zebrafish (Danio rerio)
# [7] = system: dizocilpine-treated mice; assay: step-through passive avoidance, dizocilpine-induced amnesia model; assay type: in vivo, Male Swiss OF-1 mice
smiles,measurement,setting,value
"CCN[C@@H](C)Cc1cccc(C(F)(F)F)c1 [(+)-Fenfluramine, (2S)-N-ethyl-1-[3-(trifluoromethyl)phenyl]propan-2-amine]",mean elimination half-life,[1],19 h
same,behavior in vivo at S1R,[2],behaved in vivo as S1R positive modulators
same,Conclusions,"[3]; Table 1, locomotor and LFP assays",(+)-FFA is more effective than racemic FFA
same,antiseizure activity in the zebrafish locomotor assay,[3]; scn1Lab−/− mutants,more efficacious than (−)-fenfluramine
same,reduction in seizure behavior,"[3]; scn1Lab−/− mutants, fixed concentration, FIG. 3",84%
same,potency in treating symptoms of epilepsy compared to levofenfluramine,"[3]; zebrafish, in vivo",approximately twice
same,PP (%),"[4]; Table 3 Y-Maze, drug alone 0.1 mg/kg IP",1.3 ± 7.9%
same,PP (%),"[4]; Table 3 Y-Maze, drug alone 0.3 mg/kg IP",37.9 ± 9.4 ^2%
same,PP (%),"[4]; Table 5 YMT, drug alone 0.1 mg/kg ip",8.68 ± 8.7%
same,PP (%),"[4]; Table 5 YMT, drug alone 0.3 mg/kg ip",40.2 ± 11.3^3%
same,PP (%),"[4]; Table 6 YMT, drug alone 0.1 mg/kg ip",0.4 ± 11.5%
same,PP (%),"[4]; Table 6 YMT, drug alone 0.3 mg/kg ip",46.7 ± 8.9 ^3%
same,maximum tolerated concentration (MTC),[5],100 µM
same,anti-epileptiform activity (frequency and cumulative duration of epileptiform events over 10 minutes),"[6]; 50 micromolar, FIGS. 4 and 5",comparable
same,LFP Assay,"[6]; Table 1, 25, 59 and 100 μM, oral via embryo medium",Most effective in reducing spikes; also recorded: Normal dose-response; higher
same,PP (%),"[7]; Table 3 StepThrough/PassiveAvoidance, drug alone 0.1 mg/kg IP",9.0 ± 15.8%
same,PP (%),"[7]; Table 3 StepThrough/PassiveAvoidance, drug alone 0.3 mg/kg IP",24.8 ± 14.9 ^4%
same,PP (%),"[7]; Table 5 STPA, drug alone 0.1 mg/kg ip",11.6 ± 13.6%
same,PP (%),"[7]; Table 5 STPA, drug alone 0.3 mg/kg ip",35.2 ± 14.2^6%
same,PP (%),"[7]; Table 6 STPA, drug alone 0.1 mg/kg ip",15.6 ± 17.3%
same,PP (%),"[7]; Table 6 STPA, drug alone 0.3 mg/kg ip",31.9 ± 16.3 ^6%
